Key:
[1] = system: Rats; assay: Feeding trials with various acute poisons in formulation C particles (Example 11), rats; format: in vivo; details: RAT, formulation C particle 1.5 × 1.5 mm
Experimental: (§1) Particles containing various acute poisons were made according to Formulation C, and feeding trials were carried out with rats and with mice.

[2] = system: mice; assay: Feeding trials with various acute poisons in formulation C particles (Example 11), mice; format: in vivo; details: MOUSE; formulation C particle 0.45 × 0.45 mm; bait conc. 22.5 ppm
Experimental: as §1

[3] = system: female 300-350 gram Wistar rats; assay: Feeding test of rat bait particles on rats (Example 8); format: in vivo; details: for Rat bait particles Rat Kill: 1.0 mg aldicarb particles, one per twenty grams of oatmeal (50 ppm), five female Wistar rats
Experimental: Suitably larger particles appropriate for rats, i.e. about 1 mm x 1 mm cylinders, containing 1.0 mg of aldicarb per particle were produced by extrusion.
(§2) The mouse bait particles were distributed in medium oatmeal at the concentration of one per two grams of oatmeal (50 ppm), and the rat bait particles were distributed in medium oatmeal at the concentration of one per twenty grams of oatmeal (50 ppm).
(§3) Ten male 12-18 gram LAC mice and five female 300-350 gram Wistar rats were permitted to feed on the mouse bait; and five female 300-350 gram Wistar rats were allowed to feed on the rat bait. The baits were topped up when necessary to keep a supply of food material available, and water was supplied freely.

[4] = system: female Wistar rats; assay: Feeding test of totally homogeneous aldicarb bait (Example 1), rats; format: in vivo, rat; details: for Kill Rat: 100 ppm aldicarb in medium oatmeal, 5 female Wistar rats
Description: (§4) Except where otherwise stated, baits according to the invention were produced by thoroughly hand mixing the particles with medium oatmeal, and the baits were fed to caged rats and mice as the sole feed. Water was made freely available to them. The baits remaining in each cage were weighed daily, and fresh baits provided each day.
(§5) Totally homoneneous baits were produced by slurrying an acetone solution of aldicarb on medium oatmeal to give a concentrate, then diluting the concentrate with medium oatmeal by hand mixing, to give an aldicarb concentration of 100 ppm. The toxicity of the resulting bait was determined by tests on 5 female Wistar rats and 10 male LACA mice.

[5] = system: male LACA mice; assay: Feeding test of totally homogeneous aldicarb bait (Example 1), mice; format: in vivo, mouse; details: for Kill Mouse: 100 ppm aldicarb in medium oatmeal, 10 male LACA mice
Description: as §4, §5

[6] = system: male 12-18 gram LAC mice; assay: Feeding test of mouse bait particles on mice (Example 8); format: in vivo; details: for Mouse bait particles Mouse Kill: 0.1 mg aldicarb particles, one per two grams of oatmeal (50 ppm), ten male LAC mice
Experimental: (§6) Particles of a size suitable for consumption whole (without nibbling) by mice, i.e. about 0.5 mm diameter spheres, containing 0.1 mg of aldicarb per particle were produced by a precipitation process.
as §2, §3

[7] = system: Rats; assay: Determination of optimum particle size (Example 10), rats; format: in vivo, rat; details: formulation C, one particle per 10 g diet base, after 5 days
Description: (§7) Rats were offered medium oatmeal diet containing aldicarb particles (formulation C) at the rate of one per 10 g diet base and mice were offered the particles at the rate of one per 4 g diet base.

[8] = system: male LACA mice; assay: Feeding test of formulation B 0.2 mg particles in oats (Example 6); format: in vivo, mouse; details: 50 g medium oats with 10 particles of formulation B, 0.2 mg aldicarb each; 5 male LACA mice starved for 24 hours; Day 1
Experimental: as §4
5 Male LACA mice were starved for 24 hours and then permitted to feed on 50 g of medium oats containing dispersed therein 10 particles of formulation B each containing 0.2 mg of aldicarb.

[9] = system: rabbits with a body weight approximately 2,500 g; assay: in vivo; format: in vivo, rabbit; details: 100 ppm aldicarb; any of the three formulations
Experimental: (§8) Three baits were produced containing the toxicant aldicarb, each at 100 ppm (0.01%) concentration. Aldicarb was presented in the bait either homogeneously dispersed in the manner of a conventional rodenticide, as discrete 0.4 x 0.4 mm particles, (formulation C) or as discrete 1.0 x 1.0 mm particles. The diluent was medium grade oatmeal in all cases. Tests were carried out on mice with a body weight approximately 20 g, rats with a body weight approximately 250 g, and rabbits with a body weight approximately 2,500 g.
(§9) Baits were offered with no choice of alternative food for five days.

[10] = in vivo; format: in vivo, rabbit; details: rabbit, in vivo, po; 100 ppm as HOMOGENEOUS; no choice, after 5 days; read-out: Rabbit Kill %
Experimental: as §8, §9

[11] = system: mice with a body weight approximately 20 g; assay: No-choice feeding test of three 100 ppm aldicarb presentations (Example 9), mice; format: in vivo, mouse; details: for Mouse Kill %: no choice, after 5 days
Experimental: as §8, §9

[12] = system: Wistar females; assay: Feeding test of formulation A 1.25 mg particles in oatmeal (Example 2); format: in vivo, rat; details: one 1.25 mg pellet per 20 grams of oatmeal, 5 Wistar females
Experimental: as §4
The toxicity of aldicarb particles made to formulation A was determined by tests on 5 Wistar females exposed to medium oatmeal containing one 1.25 mg pellet per 20 grams of oatmeal.

[13] = system: mice; assay: Determination of optimum particle size (Example 10), mice; format: in vivo, mouse; details: formulation C, one particle per 4 g diet base, after 5 days
Description: as §7

[14] = system: female 300-350 gram Wistar rats; assay: Feeding test of mouse bait particles on rats (Example 8); format: in vivo, rat; details: for Mouse bait particles Rat Kill: 0.1 mg aldicarb particles, one per two grams of oatmeal (50 ppm), five female Wistar rats
Experimental: as §6, §2, §3

[15] = system: male LACA mice; assay: Feeding test of formulation A 0.5 mg particles in oatmeal (Example 4); format: in vivo, mouse; details: 10 male LACA mice
Experimental: as §4
10 Male LACA mice were fed with bait consisting of medium oatmeal containing one 0.5 mg particle made according to formulation A per 10 grams of oatmeal.

[16] = system: rats with a body weight approximately 250 g; assay: No-choice feeding test of three 100 ppm aldicarb presentations (Example 9), rats; format: in vivo, rat; details: after 5 days
Experimental: as §8, §9

[17] = system: male LACA mice; assay: Feeding test of formulation A 0.2 mg particles in oatmeal (Example 5); format: in vivo, mouse; details: 10 male LACA mice
Experimental: as §4
10 Male LACA mice were permitted to feed on bait consisting of medium oatmeal containing one 0.2 mg particle of formulation A per-2 grams of oatmeal.

[18] = system: Male heterozygous resistant rats; assay: Feeding test of formulation B 1.1 mg particles in oatmeal (Example 7); format: in vivo, rat; details: 50 g medium oatmeal with 10 particles of formulation B, 1.1 mg aldicarb each; 3 male heterozygous resistant rats; Day 1
Experimental: as §4
3 Male heterozygous resistant rats were permitted to feed on 50 g medium oatmeal containing 10 particles of formulation B each containing 1.1 mg of aldicarb.

[19] = system: Heterozygous anti-coagulant resistant rats; assay: Feeding test of formulation A 1.25 mg particles in oatmeal (Example 3); format: in vivo, rat; details: one 1.25 mg particle per 20 grams of oatmeal, bait not changed daily, 5 heterozygous anti-coagulant resistant rats
Experimental: as §4
5 Heterozygous anti-coagulant resistant rats were allowed to feed on bait consisting of medium oatmeal containing one 1.25 mg particle made to formulation A per 20 grams of oatmeal. The bait was weighed daily, but in this example it was not changed daily.

[20] = 100 ppm as 0.4 × 0.4 mm particles (formulation C)
[21] = 100 ppm as 1.0 × 1.0 mm particles
[22] = formulation A 0.5 mg aldicarb particles, 4 days

Structure (SMILES): Cc1cc(N(C)C)nc(Cl)n1 [CRIMIDINE, 2 chloro-4-(dimethylamino)-6-methylpyrimidine]
- DAYS TO KILL ([1]; bait conc. 250 ppm): 3 days
- Kill (%) ([1]; bait conc. 250 ppm): 100%
- DAYS TO KILL [2]: 5 days
- Kill (%) [2]: 100%

Structure (SMILES): CC(=O)O[C@@H]1C[C@]2(O)[C@H](CC[C@]3(C)[C@@H](c4ccc(=O)oc4)CC[C@@]32O)[C@@]2(C)CC[C@H](O[C@@H]3O[C@H](CO)[C@@H](O)[C@H](O)[C@H]3O)C=C12 [SCILLIROSIDE, scilliroside]
- DAYS TO KILL ([1]; bait conc. 50 ppm): 2 days
- Kill (%) ([1]; bait conc. 50 ppm): 100%

Structure (SMILES): O=C(O)CF [SODIUM FLUOROACETATE, Sodium fluoroacetate]
- DAYS TO KILL ([1]; bait conc. 250 ppm): 2 days
- Kill (%) ([1]; bait conc. 250 ppm): 100%

Structure (SMILES): CNC(=O)O/N=C/C(C)(C)SC [aldicarb, 2 methyl-2-(methylthio) propionaldehyde 0-(methylcarbamoyl) oxime]
- Rat bait particles Rat Kill ([3]; Day 1): 2 out of 5
- Rat bait particles Rat Kill ([3]; Day 3): Remaining rat died
- death of all animals ([3]; all rats feeding on the 1 mg particles, 50 ppm bait): died by the end of the third day
- Kill Rat ([4]; Day 1): 0 out of 5
- Kill Rat ([4]; Day 2): 0 out of 5
- Kill Rat ([4]; Day 3): 0 out of 5
- kills recorded ([4]; 100 ppm aldicarb, rats, after 3 days exposure): no kills
- Kill Mouse ([5]; Day 1): 0 out of 10
- Kill Mouse ([5]; Day 2): 0 out of 10
- Kill Mouse ([5]; Day 3): 0 out of 10
- Kill Mouse ([5]; Day 4): 0 out of 10
- kills recorded ([5]; 100 ppm aldicarb, mice, after 4 days exposure): no kills
- Mouse bait particles Mouse Kill ([6]; Day 1): 4 out of 10
- Mouse bait particles Mouse Kill ([6]; Day 3): Remaining mouse died
- death of all animals ([6]; all mice feeding on the 0.1 mg particles, 50 ppm bait): died by the end of the third day
- Kill (%) ([7]; 60—80 g Weaner RATS, particle 0.75 × 0.75 mm): 100%
- Kill (%) ([7]; 60—80 g Weaner RATS, particle 1.0 × 1.0 mm): 100%
- Kill (%) ([7]; 60—80 g Weaner RATS, particle 1.5 × 3.0 mm): 80%
- Kill (%) ([7]; 300—400 g Adult RATS, particle 0.75 × 0.75 mm): 50%
- Kill (%) ([7]; 300—400 g Adult RATS, particle 1.0 × 1.0 mm): 100%
- Kill (%) ([7]; 300—400 g Adult RATS, particle 1.5 × 3.0 mm): 100%
- Kill [8]: 2 out of 5
- death of rabbits [9]: No rabbits died
- mortality at 120 h [10]: 0%
- death of mice ([11]; 100 ppm aldicarb on 0.4 x 0.4 mm particles): All mice died
- Mouse Kill % [11, 20]: 100%
- Mouse Kill % [11, 21]: 30%
- Mouse Kill % ([11]; 100 ppm as HOMOGENEOUS): 0%
- Kill ([12]; Day 1): 2 out of 5
- Kill ([12]; Day 3): Remaining rat killed
- Kill (%) ([13]; 12—10 g. Weaner MICE, particle 0.2 × 0.5 mm): 60%
- Kill (%) ([13]; 12—10 g. Weaner MICE, particle 0.4 × 0.4 mm): 100%
- Kill (%) ([13]; 12—10 g. Weaner MICE, particle 0.5 × 0.5 mm): 70%
- Kill (%) ([13]; 12—10 g. Weaner MICE, particle 0.75 × 0.75 mm): 57%
- Kill (%) ([13]; 20—25 g Adult MICE, particle 0.2 × 0.5 mm): 0%
- Kill (%) ([13]; 20—25 g Adult MICE, particle 0.4 × 0.4 mm): 100%
- Kill (%) ([13]; 20—25 g Adult MICE, particle 0.5 × 0.5 mm): 100%
- Mouse bait particles Rat Kill ([14]; Day 1): 0/5
- Mouse bait particles Rat Kill ([14]; Day 2): 0/5
- Mouse bait particles Rat Kill ([14]; Day 3): 0/5
- Mouse bait particles Rat Kill ([14]; Day 4): 0/5
- Mouse bait particles Rat Kill ([14]; Day 5 to 7): 0/5
- kill of rats feeding on the mouse bait ([14]; 0.1 mg particles, 50 ppm bait, seven days of feeding): not killed even after seven days
- Kill [15, 22]: 40%
- mice killed (total of Example 4) [15, 22]: 4 out of 10
- Kill ([15]; formulation A, one 0.5 mg particle per 10 grams of oatmeal, Day 1): 1 out of 10
- Rat Kill % [16, 20]: 0%
- Rat Kill % [16, 21]: 100%
- Rat Kill % ([16]; 100 ppm as HOMOGENEOUS): 0%
- Kill ([17]; formulation A 0.2 mg aldicarb particles, Example 5): 100%
- Kill ([17]; formulation A, one 0.2 mg particle per 2 grams of oatmeal, Day 1): 4 out of 10
- Kill [18]: All killed
- Kill ([19]; Day 1): 3 out of 5
- Kill ([19]; Day 3): Remaining rat killed
